Measured values as given in the NIST ThermoML archive (doi:10.1016/j.jct.2014.06.023).
“And” between values parts separate entries of the source, which are not always exact repeats. Equal values may be shown once.

Settings: Buoyancy - hydrostatic balance with magnetic suspension - one sinker

FCF [difluoromethane]
Settings	mass density
215.35 K, 1103.8 kPa, Liquid	1230.26 kg/m3
215.35 K, 1325.8 kPa, Liquid	1230.63 kg/m3
215.36 K, 1538.7 kPa, Liquid	1230.95 kg/m3
215.36 K, 1697.9 kPa, Liquid	1231.2 kg/m3
215.37 K, 103.26 kPa, Liquid	1228.62 kg/m3
215.37 K, 297.95 kPa, Liquid	1228.9 kg/m3
215.37 K, 703.99 kPa, Liquid	1229.57 kg/m3
215.39 K, 1295 kPa, Liquid	1230.49 kg/m3
224.87 K, 174.37 kPa, Liquid	1202.55 kg/m3
224.87 K, 584.91 kPa, Liquid	1203.31 kg/m3
224.88 K, 1061.9 kPa, Liquid	1204.12 kg/m3
224.89 K, 1060.1 kPa, Liquid	1204.1 kg/m3
224.91 K, 1506.3 kPa, Liquid	1204.87 kg/m3
234.46 K, 1590 kPa, Liquid	1178.28 kg/m3
234.51 K, 797.4 kPa, Liquid	1176.49 kg/m3
234.52 K, 405.74 kPa, Liquid	1175.67 kg/m3
234.55 K, 274.67 kPa, Liquid	1175.3 kg/m3
234.56 K, 1164.8 kPa, Liquid	1177.09 kg/m3
235.12 K, 296.35 kPa, Liquid	1173.64 kg/m3
235.12 K, 647.72 kPa, Liquid	1174.42 kg/m3
235.12 K, 648.42 kPa, Liquid	1174.42 kg/m3
235.12 K, 1119.6 kPa, Liquid	1175.37 kg/m3
235.12 K, 1629.1 kPa, Liquid	1176.43 kg/m3
235.13 K, 296.36 kPa, Liquid	1173.65 kg/m3
235.13 K, 1583.2 kPa, Liquid	1176.31 kg/m3
235.14 K, 1742.1 kPa, Liquid	1176.61 kg/m3
244.28 K, 721.81 kPa, Liquid	1147.83 kg/m3
244.28 K, 1218.8 kPa, Liquid	1148.97 kg/m3
244.29 K, 432.84 kPa, Liquid	1147.12 kg/m3
244.29 K, 1506.2 kPa, Liquid	1149.63 kg/m3
244.3 K, 1507.8 kPa, Liquid	1149.6 kg/m3
244.89 K, 745.03 kPa, Liquid	1145.98 kg/m3
244.89 K, 1636.6 kPa, Liquid	1148.09 kg/m3
244.9 K, 364.35 kPa, Liquid	1145.04 kg/m3
244.9 K, 1266.5 kPa, Liquid	1147.19 kg/m3
244.9 K, 1785 kPa, Liquid	1148.39 kg/m3
244.91 K, 1786.1 kPa, Liquid	1148.39 kg/m3
254.08 K, 382.25 kPa, Gas	10.3656 kg/m3
254.09 K, 214.16 kPa, Gas	5.5491 kg/m3
254.09 K, 313.9 kPa, Gas	8.3508 kg/m3
254.1 K, 104.12 kPa, Gas	2.6275 kg/m3
254.65 K, 795.59 kPa, Liquid	1116.29 kg/m3
254.65 K, 1111.6 kPa, Liquid	1117.17 kg/m3
254.65 K, 1794.7 kPa, Liquid	1119.02 kg/m3
254.66 K, 487.53 kPa, Liquid	1115.4 kg/m3
254.66 K, 1451 kPa, Liquid	1118.05 kg/m3
254.66 K, 1795.2 kPa, Liquid	1119 kg/m3
254.67 K, 1113.8 kPa, Liquid	1117.12 kg/m3
254.67 K, 1449.1 kPa, Liquid	1118.02 kg/m3
263.88 K, 107.72 kPa, Gas	2.6075 kg/m3
263.88 K, 204.78 kPa, Gas	5.0609 kg/m3
263.88 K, 306.27 kPa, Gas	7.74 kg/m3
263.88 K, 401.96 kPa, Gas	10.3885 kg/m3
263.88 K, 506.07 kPa, Gas	13.4247 kg/m3
263.88 K, 571.82 kPa, Gas	15.4369 kg/m3
263.89 K, 71.43 kPa, Gas	1.7159 kg/m3
264.46 K, 1262.6 kPa, Liquid	1086.13 kg/m3
264.46 K, 1771.5 kPa, Liquid	1087.75 kg/m3
264.47 K, 883.24 kPa, Liquid	1084.88 kg/m3
264.47 K, 1555.9 kPa, Liquid	1087.04 kg/m3
264.47 K, 1797.3 kPa, Liquid	1087.79 kg/m3
264.47 K, 1799.4 kPa, Liquid	1087.82 kg/m3
264.48 K, 882.25 kPa, Liquid	1084.85 kg/m3
264.48 K, 1561.7 kPa, Liquid	1087.04 kg/m3
264.49 K, 616.31 kPa, Liquid	1083.92 kg/m3
273.73 K, 101.73 kPa, Gas	2.3681 kg/m3
273.73 K, 312.85 kPa, Gas	7.5636 kg/m3
273.73 K, 513.88 kPa, Gas	12.9426 kg/m3
273.73 K, 711.85 kPa, Gas	18.7582 kg/m3
273.73 K, 817.04 kPa, Gas	22.1108 kg/m3
273.74 K, 224.38 kPa, Gas	5.3352 kg/m3
273.74 K, 416.77 kPa, Gas	10.2856 kg/m3
273.74 K, 614.63 kPa, Gas	15.8288 kg/m3
273.74 K, 771.81 kPa, Gas	20.6433 kg/m3
273.74 K, 824.1 kPa, Gas	22.3391 kg/m3
273.74 K, 876.3 kPa, Liquid	1053.21 kg/m3
273.74 K, 1101.1 kPa, Liquid	1054.06 kg/m3
273.75 K, 1351.5 kPa, Liquid	1054.99 kg/m3
273.76 K, 1582.2 kPa, Liquid	1055.81 kg/m3
283.52 K, 412.99 kPa, Gas	9.7269 kg/m3
283.52 K, 614.51 kPa, Gas	15.0118 kg/m3
283.52 K, 710.61 kPa, Gas	17.6856 kg/m3
283.53 K, 101.75 kPa, Gas	2.2806 kg/m3
283.53 K, 213.32 kPa, Gas	4.8632 kg/m3
283.53 K, 312.42 kPa, Gas	7.2368 kg/m3
283.53 K, 812.63 kPa, Gas	20.6499 kg/m3
283.54 K, 502.33 kPa, Gas	12.0197 kg/m3
283.54 K, 1013.2 kPa, Gas	26.9253 kg/m3 and 26.9235 kg/m3
283.55 K, 911.64 kPa, Gas	23.6652 kg/m3
283.55 K, 1562.5 kPa, Liquid	1020.09 kg/m3
283.56 K, 1156 kPa, Liquid	1018.14 kg/m3
283.56 K, 1382.8 kPa, Liquid	1019.19 kg/m3
293.32 K, 107.46 kPa, Gas	2.3235 kg/m3
293.32 K, 432.29 kPa, Gas	9.7863 kg/m3
293.32 K, 546.17 kPa, Gas	12.5808 kg/m3
293.32 K, 656.65 kPa, Gas	15.3945 kg/m3
293.33 K, 1265.1 kPa, Gas	33.2531 kg/m3
293.33 K, 1397.3 kPa, Gas	37.8678 kg/m3
293.33 K, 2143.9 kPa, Liquid	984.45 kg/m3
293.34 K, 760.28 kPa, Gas	18.1362 kg/m3
293.34 K, 866.25 kPa, Gas	21.0499 kg/m3
293.34 K, 968.81 kPa, Gas	23.9856 kg/m3
293.34 K, 1066.3 kPa, Gas	26.9025 kg/m3
293.34 K, 1161.5 kPa, Gas	29.864 kg/m3
293.34 K, 1757.2 kPa, Liquid	982.24 kg/m3
293.35 K, 1537.9 kPa, Liquid	980.97 kg/m3
293.37 K, 323.39 kPa, Gas	7.2059 kg/m3
293.38 K, 219.26 kPa, Gas	4.8156 kg/m3
